Laboratory results taken from paper PMC2409523, “Hormonal impact of the 17α-hydroxylase/C17,20-lyase inhibitor abiraterone acetate (CB7630) in patients with prostate cancer” (British Journal of Cancer, 2004).

Assays:
[1] = test system: testosterone synthesis; experiment: Study A: single dose study in castrate males with prostate cancer, serum hormone levels; format: in vivo, human; conditions: single dose of 500 mg, castrate males
Protocol: Significant suppression was defined as either testosterone <0.14 nmol l^−1 in individual patients with a pretreatment value of <0.6 nmol l^−1 or a ⩾75% reduction in individual patients with a pretreatment value of ⩾0.6 nmol l^−1.
This was a single-centre, open-label, phase one, single-dose study in which sequential cohorts of three medically or surgically castrate patients were to receive treatment at five dose levels: starting at 10 mg and increasing to 30, 100, 200 and 500 mg. […] A confirmatory testosterone level of between 0.2 and 2.0 nmol l^−1 was also required.
Serum samples for endocrine analysis were obtained at 0, 2, 4, 8 and 24 h on a single day in the week prior to treatment commencement and then on Days 1, 2, 3, 4 and 7. As the duration of testosterone suppression was longer than originally anticipated, additional samples were added on Days 10, 14 and 21. The serum samples were analysed for testosterone, cortisol, 17 α-hydroxyprogesterone (17HP), androstenedione, LH and follicle-stimulating hormone (FSH) using commercially available kits. However, the DPC Coat-a-count kit for testosterone was sensitised using a larger volume of sample/standard and extension of the standard curve. […] All endocrine analyses were conducted by radioimmunoassay except for LH and FSH, which were by enzyme immunoassay.

[2] = Safety and tolerability in the three phase one trials; format: in vivo, human
Protocol: Prior to the first dose of therapy a complete history, physical examination and assessment of performance status was performed on all patients. Full-blood count, electrolytes and creatinine, liver function, urinanalysis, electrocardiograph and chest X-ray were obtained from all patients. The ECG was repeated 6 h after dosing. On the day of therapy heart rate, blood pressure and temperature were recorded every 4 h and then daily at the time of blood sampling. Thereafter, full-blood count, electrolytes, creatinine and liver function were re-evaluated on Days 2 and 7. Toxicity was recorded using the NCI-CTG Expanded Common Toxicity Criteria V1.

Structure (SMILES): CC(=O)O[C@H]1CC[C@@]2(C)C(=CC[C@@H]3[C@@H]2CC[C@]2(C)C(c4cccnc4)=CC[C@@H]32)C1 [abiraterone acetate]
- patients with suppression of testosterone levels to <0.14 nmol l^−1 [1]: four out of six
- grade three or four toxic events ([2]; all three trials): no grade three or four toxic events
- resting heart rate or blood pressure ([2]; all three trials): No alteration
- serious adverse events ([2]; all three trials): no serious adverse events attributable to treatment
- tolerability ([2]; all three trials): very well tolerated
- haematologic or biochemical effects ([2]; any dose level or schedule evaluated): No haematologic or biochemical effects
- systemic effects reported by individual patients ([2]; no relation to dose or schedule apparent): Headache, hot flushes, a mild increase in abdominal and testicular pain, and a transient depression in mood (all grade II)
